Assay results as given in paper PMC4640556, “Primary Amine Oxidase of Escherichia coli Is a Metabolic Enzyme that Can Use a Human Leukocyte Molecule as a Substrate” (PLoS ONE, 2015).
Where two headings read alike, the source gives them in different places.

Legend:
ECAO [1] = molecular target: T1, ECAO (Escherichia coli, UniProt P46883); parameters: method as in PMID 7765483; conditions: cited from earlier work
T1 construct: made in house; host or cells: E. coli; inferred from the overexpression strain E. coli (pKK233-3-tynA)
T1 sequence (P46883 31-757): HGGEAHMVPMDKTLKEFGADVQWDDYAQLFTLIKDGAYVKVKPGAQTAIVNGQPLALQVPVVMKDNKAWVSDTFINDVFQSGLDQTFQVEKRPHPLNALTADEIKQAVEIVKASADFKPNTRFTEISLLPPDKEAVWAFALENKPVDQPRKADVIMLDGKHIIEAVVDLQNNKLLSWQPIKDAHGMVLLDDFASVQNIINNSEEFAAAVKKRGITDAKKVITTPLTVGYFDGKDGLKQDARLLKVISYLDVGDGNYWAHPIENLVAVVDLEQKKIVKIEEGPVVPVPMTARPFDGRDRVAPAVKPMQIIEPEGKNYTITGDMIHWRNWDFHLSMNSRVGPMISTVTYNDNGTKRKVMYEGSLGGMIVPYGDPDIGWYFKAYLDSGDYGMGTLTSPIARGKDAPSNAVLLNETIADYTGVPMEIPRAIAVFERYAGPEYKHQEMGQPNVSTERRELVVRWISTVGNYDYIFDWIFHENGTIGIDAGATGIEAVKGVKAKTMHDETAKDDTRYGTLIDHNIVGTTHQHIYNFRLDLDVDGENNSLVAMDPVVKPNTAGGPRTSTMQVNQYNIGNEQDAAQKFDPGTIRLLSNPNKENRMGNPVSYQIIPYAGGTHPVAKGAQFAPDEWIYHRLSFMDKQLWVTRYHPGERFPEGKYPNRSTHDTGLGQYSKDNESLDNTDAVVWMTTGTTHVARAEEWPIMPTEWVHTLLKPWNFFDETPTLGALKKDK

ECAO [2] = molecular target: T1, ECAO; experiment: ECAO inhibitor test (spectroscopic amine oxidase activity assay, purified ECAO, substrate PEA); type: biochemical; conditions: for decrease of ECAO activity by aminoglycoside: aminoglycoside 1 mM (Fig 2C), sisomycin p = 0.06; for IC50: purified ECAO
Description: To determine the effect of different inhibitors on ECAO activity, we used purified ECAO protein and a spectroscopic amine oxidase activity assay, which is not as sensitive to additives as the Amplex Red assay. In short, 21 ng of ECAO protein was incubated with differing amounts of inhibitors in Krebs-Ringer phosphate glucose buffer for 20 min at 30°C. After incubation, we added substrate (0.5 mM PEA) and a mixture of 1 mM vanillic acid, 0.5 mM 4-aminopyridine, and 16 U of horseradish peroxidase, and measured the A492nm immediately and hourly thereafter.

ECAO [3] = molecular target: T1, ECAO; experiment: ECAO activity with human granulocytes as sole substrate (Amplex Red, H2O2 production); type: biochemical; conditions: 30 nM ECAO, 200,000 granulocytes per well, 37°C, Cells + ECAO + SC, p = 0.004
Source text: To test if ECAO has a substrate on human granulocytes, we used purified recombinant protein ECAO, whose production and purification has been described. To collect human neutrophils, we extracted granulocytes from the fresh peripheral blood of healthy volunteers using Ficoll (GE Healthcare). We collected buffy coats according to standard procedure, lysed red blood cells with Pharm Lyse (BD Biosciences, Franklin Lakes, NJ, USA), washed with PBS, counted the cells, and used the cells immediately. The assay was conducted in 25 mM HEPES and 150 mM NaCl (pH 7.4), and we used 30 nM ECAO and 200,000 viable granulocytes per well. PEA was used as a positive control for the substrate, and the specific activity was determined using parallel wells with SC, as described above. The assay was conducted at 37°C. Three independent assays (different blood donors) were performed with duplicates.

[4] = test system: tynA+ E. coli and tynA- E. coli; experiment: Growth inhibition on LA plates (discs with SC); type: cell-based, Escherichia coli; conditions: data not shown
Description: (§1) To assess the effect of inhibitors on bacterial growth, discs with different concentrations of SC were placed on LA plates freshly plated with either tynA+ E. coli (three different strains) or tynA- E. coli (five strains). The inhibition zones were measured the next day. For the growth inhibition assay in a liquid medium, the same strains were cultured in tryptic soy broth (TSB) medium for 14–16 h. Then, 10^3 cells were inoculated into TSB medium with different concentrations (0–100 mg/mL) of SC and cultured further at 37°C with shaking at 100 rpm until the following day. Then, 10 μL of bacterial mixture was plated on lactose medium plates, and the plates were incubated at 37°C for 14–16 h before counting the colonies.

ΔtynA strain = experiment: Growth inhibition assay in liquid medium, ΔtynA / tynA- strains; type: cell-based, Escherichia coli; conditions: liquid medium (S5 Fig)
Description: as §1
(§2) The inhibition of growth by a selective hydrazine-based human amine oxidase inhibitor, BTT-2052 [30], and SC on tynA+ and tynA- strains was tested similarly in M9-lactose-PEA medium using inhibitor concentrations of 0–0.5 mM.

wt E. coli (tynA+) = experiment: Growth inhibition assay in liquid medium, wt / tynA+ strains; type: cell-based, Escherichia coli; conditions: SC concentrations lower than 5–10 mM (S5 Fig)
Description: as §1, §2

[5] = PEA, aminoglycoside concentrations 10 μM–10 mM, read-out: half maximal inhibitory concentration (IC50) of aminoglycosides on ECAO activity on PEA

Compound: N[C@@H]1C[C@H]1c1ccccc1 [tranycypromine]
- effect on ECAO activity (ECAO [1]): inhibited

Compound: NCC[C@H](O)C(=O)N[C@@H]1C[C@H](N)[C@@H](O[C@H]2O[C@H](CN)[C@@H](O)[C@H](O)[C@H]2O)[C@H](O)[C@H]1O[C@H]1O[C@H](CO)[C@@H](O)[C@H](N)[C@H]1O [amikacin]
- decrease of ECAO activity by aminoglycoside (ECAO [2]): 23–61%
- IC50 (ECAO [2]; [5]): 1000 µM

Compound: NO [hydroxylamine]
- effect on ECAO activity (ECAO [1]): inhibited

Compound: CN[C@@H]1[C@@H](O)[C@@H](O[C@@H]2[C@@H](O)[C@H](O[C@H]3OC(CN)=CC[C@H]3N)[C@@H](N)C[C@H]2N)OC[C@]1(C)O [sisomycin]
- decrease of ECAO activity by aminoglycoside (ECAO [2]): 23–61%

Compound: Gentamycin
- decrease of ECAO activity by aminoglycoside (ECAO [2]): no effect

Compound: NNC(N)=O [SC, semicarbazide]
- effect on H2O2 production by ECAO with granulocytes as only source of substrate (ECAO [3]): inhibited
- effect on bacterial growth on LA plates ([4]; at 100 mg/mL): minimal
- effect on bacterial growth on LA plates ([4]; under the concentration of 100 mg/mL): no effect
- effect on growth of the ΔtynA strain (ΔtynA strain): no effect
- effect on growth in liquid rich media (wt E. coli (tynA+)): no significant effect
- effect on ECAO activity (ECAO [1]): inhibited
- IC50 (ECAO [2]; 0.5 mM PEA, seven inhibitor concentrations 0.1–10 μM, 30°C, read-out: half maximal inhibitory concentration (IC50) on ECAO activity on PEA): 0.7 µM

Compound: CC(C)NNC(=O)c1ccncc1 [iproniazid]
- effect on ECAO activity (ECAO [1]): inhibited

Compound: NC[C@H]1O[C@H](O[C@H]2[C@H](O)[C@@H](O[C@H]3O[C@H](CO)[C@@H](O)[C@H](N)[C@H]3O)[C@H](N)C[C@@H]2N)[C@H](N)C[C@@H]1O [tobramycin]
- decrease of ECAO activity by aminoglycoside (ECAO [2]): 23–61%
- IC50 (ECAO [2]; [5]): 800 µM

Compound: NNCCc1ccccc1 [phenelzine]
- effect on ECAO activity (ECAO [1]): inhibited

Compound: NC[C@H]1O[C@H](O[C@H]2[C@H](O)[C@@H](O[C@H]3O[C@H](CO)[C@@H](O)[C@H](N)[C@H]3O)[C@H](N)C[C@@H]2N)[C@H](O)[C@@H](O)[C@@H]1O [kanamycin]
- decrease of ECAO activity by aminoglycoside (ECAO [2]): 23–61%
- IC50 (ECAO [2]; [5]): 3800 µM
